Where “and” joins values, the source holds several entries; their conditions need not be identical. Equal values may be shown once.
Experiments:
[1] = Equilibrium solubility in deionized water; settings: for solubility, acyclovir active: DI water (pH 6.92), room temperature; for solubility: DI water (pH = 6.92)
[2] = Solubility in simulated body fluids; type: physicochemical
[3] = Thermogravimetric analysis; type: physicochemical; settings: under nitrogen, 5 °C/min
[4] = cited from earlier work
[5] = cited from earlier work; remark: listed apart in the source

| solubility, acyclovir active [1] | solubility [1] [mg acyclovir active/mL] | T5% (decomposition of 5% of the sample), TGA [3] [°C] | Compound | other results |
| --- | --- | --- | --- | --- |
| 213.7 mg active/mL | 213.7 |  | CCCC[N+](CCCC)(CCCC)CCCC.Nc1nc2c(ncn2COCCO)c(=O)[n-]1 [[N4,4,4,4][Acy] (3), Tetrabutylammonium Acyclovir] | solubility, acyclovir active ([2]; PBS, pH 7.4): 220(20) mg active/mL; solubility, acyclovir active ([2]; SGF, pH 1.2): 170(20) mg active/mL; solubility, acyclovir active ([2]; SIF, pH 6.8): 140(10) mg active/mL; acyclovir active delivered relative to acyclovir itself ([2]; across the three media (PBS, SIF, SGF), depending on the medium): ca. 150 times |
|  |  | 131 | C[N+](C)(C)CCO.Nc1nc2c(ncn2COCCO)c(=O)[nH]1 [[Cho][Acy] (1), Choline Acyclovir] |  |
|  |  |  | C[N+](C)(C)CCO.Cc1ccc(C(=O)c2ccc(CC(=O)[O-])n2C)cc1 [choline tolmetin] | water solubility of choline salt relative to neutral form [4]: 8000 times |
|  |  |  | CC(C)[C@H](N)C(=O)OCCOCn1cnc2c(=O)[nH]c(N)nc21 [valacyclovir] | oral bioavailability [5]: ca. 55%; oral bioavailability relative to acyclovir [5]: 3 times |
| 101.3(5) mg active/mL | 101.3 |  | CCCCCCCCCCCCCCCC[N+](C)(C)C.Nc1nc2c(ncn2COCCO)c(=O)[n-]1 [[N1,1,1,16][Acy] (4), Hexadecyltrimethylammonium Acyclovir] |  |
| 2.948(4) mg active/mL | 2.9 | 122.1 | CCCCC(CC)COC(=O)CC(C(=O)OCC(CC)CCCC)S(=O)(=O)O.Nc1nc2c(ncn2COCCO)c(=O)[nH]1 (stereo not drawn) [[H2Acy][Doc] (6), Acyclovir Docusate] |  |
|  |  | 240.1 | Nc1nc2c(ncn2COCCO)c(=O)[nH]1 [acyclovir (3Acy·2H2O), 9-[(2-hydroxyethoxy)methyl]guanine, reference compound] | solubility in water ([4]; at 22–25 °C): 1200 to 1600 µg/mL; solubility ([2]; simulated intestinal fluid (SIF), pH 6.8, thermodynamic from solid): 4440 µM and 1000 µg/mL |

From article PMC6640931 (ACS Omega, 2017)
